According to patent US20250011303A1, “SMALL MOLECULE MODULATORS OF IL-17A, METHODS OF MAKING AND METHODS OF USING THEREOF” (ASCLETIS BIOSCIENCE CO., LTD, priority 2023, published 2025):

Each molecule was assayed on HEK-Blue IL-17 cells with rhIL-17A/A (assay: HEK-Blue IL-17 cell assay (SEAP reporter, rhIL-17A/A stimulation)). Details: 20 hours incubation, absorbance at 405 nm, read-out: IC50 in HEK-Bule cell Assay.
Format: cell-based, human
Protocol: • 1. The test Compounds were 3-fold serial diluted from 10 mM for 10 doses in DMSO. • 2. Prepare Reference Compounds (IL-17A-Inhibitor-1) were 3-fold serial diluted from 1 mM for 10 doses in DMSO. • 3. Prepare 1000× Positive control (1 mM IL-17A-Inhibitor-1) and 1000× vehicle control (100% DMSO).
• a) Cells were cultured as the HEK-Blue™ IL-17 technical data sheet recommended. HEK-Blue IL-17 cells were assayed in the exponential growth phase. • b) Aspirate growth medium and rinse cells twice with PBS to remove phenol red. • c) Resuspend cells in test medium to a proper concentration. • d) Only cells with viability greater than 90% were used for assays. • e) Transfer 25 nl of compound dilutions into 384-well assay plates using Echo655; • f) Seed 25 ul of HEK-Blue IL-17 cells at 8,000 cells/well into 384-well plate with rhIL-17A/A. • g) Cells were incubated for 20 hours at 37° C. under 5% CO2 atmosphere. • h) Transfer 2 ul of cells supernatant into per well of 384-well assay plates. • i) Add 20 ul of PNPP substrate. • j) Measure the Absorbance at 405 nm on Envision 2105 plate reader.
RLU signal (LUMcmpd) is calculated for each well.
% Inhibition is calculated as follow: […]
Signalave_pc: The average signal for the positive controls across the plate.
Signalave_vc: The average signal for negative controls across the plate.
Calculate IC50 and Plot effect-dose curve of cmpds:
Calculate IC50 by fitting % Inhibition values and log of compound concentrations to nonlinear regression (dose response−variable slope) with Graphpad 8.0.

Row | SMILES | IC50
1 | CC(C)n1nccc1C(=O)N[C@H](C(=O)Nc1ccc2c(c1)O[C@@H](C1CC(F)(F)C1)C[C@H]2C(=O)N1CC(F)(F)C1)C1CCCCCC1 [Compound 228] | 27.5 nM
2 | CC(C)n1nccc1C(=O)N[C@H](C(=O)Nc1ccc2c(c1)O[C@H](C1CC(F)(F)C1)C[C@H]2C(=O)N1CC(F)(F)C1)C1CCCCCC1 [Compound 226] | 48.9 nM

Same assay, conditions: Homo sapiens, HEK-Blue, 20 h, 20 hours incubation, absorbance at 405 nm, read-out: IC50 in HEK-Bule cell Assay

Row | SMILES | IC50
3 | CC(C)C1CN(C(=O)N2CC(F)(F)C2)c2ccc(NC(=O)[C@@H](NC(=O)c3ccnn3C(C)C)C(C3CC3)C3CC3)cc2O1 (stereo partly shown) [Compound 247] | 30.4 nM
4 | CC(C)C1CC(C(=O)N2CC3(C2)CC(F)(F)C3)c2ccc(NC(=O)[C@@H](NC(=O)c3ccnn3C(C)C)C3CCCCCC3)cc2O1 (stereo partly shown) [Compound 165] | 127 nM
5 | CC(C)n1nccc1C(=O)N[C@H](C(=O)Nc1cc2c(cc1F)C(C(=O)N1CC(F)(F)C1)CC1(CCOCC1)O2)[C@H]1CC[C@H](C)CC1 (stereo partly shown) [Compound 244] | 13.5 nM
6 | CC(C)n1nccc1C(=O)N[C@H](C(=O)Nc1ccc2c(c1)OCC[C@H]2NC(=O)CCC(F)(F)F)C1CCCCCC1 [Compound 1] | 209 nM
7 | CC(C)n1nccc1C(=O)N[C@H](C(=O)Nc1ccc2c(c1)OC(C1CCCC1)CC2C(=O)N1CC(F)(F)C(F)(F)C1)C1CCCCCC1 (stereo partly shown) [Compound 211] | 259 nM
8 | CC(C)n1nccc1C(=O)N[C@H](C(=O)Nc1ccc2c(c1)OC1(CCOCC1)CC2C(=O)N1CC(F)(F)C1)[C@H]1CC[C@H](C)CC1 (stereo partly shown) [Compound 239] | 31.1 nM
9 | CC(C)n1nccc1C(=O)N[C@H](C(=O)Nc1ccc2c(c1)OC1(CCCCC1)CC2C(=O)N1CC(F)(F)C1)C1CCCCCC1 (stereo partly shown) [Compound 221] | 116 nM
10 | CC1CN(C(=O)N2CC(F)(F)C2)c2ccc(NC(=O)[C@@H](NC(=O)c3ccnn3C(C)C)C3CCCCCC3)cc2O1 (stereo partly shown) [Compound 235] | 71.9 nM
11 | CC(C)n1nccc1C(=O)N[C@H](C(=O)Nc1ccc2c(c1)OC1(CCOCC1)CN2C(=O)N1CC(F)(F)C1)C1CCCCCC1 [Compound 169] | 18.2 nM
12 | CC(C)[C@@H]1C[C@@H](C(=O)N2CC(F)(F)C(F)(F)C2)c2ccc(NC(=O)[C@@H](NC(=O)c3ccnn3C(C)C)C3CCCCCC3)cc2O1 [Compound 217] | 199 nM
13 | CC(C)n1nccc1C(=O)N[C@H](C(=O)Nc1ccc2c(c1)OCC(C)(C)[C@H]2NC(=O)CCC(F)(F)F)C1CCCCCC1 [Compound 12] | 317 nM
14 | CCC1(CC)CC(C(=O)N2CC(F)(F)C2)c2ccc(NC(=O)[C@@H](NC(=O)c3ccnn3C(C)C)C3CCCCCC3)cc2O1 (stereo partly shown) [Compound 108] | 102 nM
15 | CC(C)n1nccc1C(=O)N[C@H](C(=O)Nc1ccc2c(c1)CCCC2C(=O)N1CC(F)(F)C(F)(F)C1)C1CCCCCC1 (stereo partly shown) [Compound 203] | 141 nM
16 | CC(C)n1nccc1C(=O)N[C@H](C(=O)Nc1cc2c(cc1F)C(C(=O)N1CC(F)(F)C1)CC(C1CC(F)(F)C1)O2)C1CCCCCC1 (stereo partly shown) [Compound 193] | 39.7 nM
17 | CC(C)n1nccc1C(=O)N[C@H](C(=O)Nc1ccc2c(c1)OCCC2C(=O)N1CCC(F)(F)CC1)C1CCCCCC1 (stereo partly shown) [Compound 206] | 369 nM
18 | CC(C)n1nccc1C(=O)N[C@H](C(=O)Nc1ccc2c(c1)O[C@@H](C1CC(F)(F)C1)C[C@H]2C(=O)N1CC(F)(F)C1)[C@H]1CC[C@H](C)CC1 [Compound 241] | 15.9 nM
19 | O=C(N[C@H](C(=O)Nc1ccc2c(c1)OC1(CCOCC1)CC2C(=O)N1CC(F)(F)C1)C1CCCCCC1)OC[C@@H]1CC1(F)F (stereo partly shown) [Compound 190] | 367 nM
20 | CC(C)C1CN(C(=O)N2CC(F)(F)C2)c2ccc(NC(=O)[C@@H](NC(=O)c3ccnn3C(C)C)C3CCCCCC3)cc2O1 (stereo partly shown) [Compound 167] | 30.4 nM
21 | CC(C)n1nccc1C(=O)N[C@H](C(=O)Nc1cc2c(cc1F)C(C(=O)N1CC(F)(F)C1)CC1(CCOCC1)O2)C(C1CC1)C1CC1 (stereo partly shown) [Compound 237] | 26.1 nM
22 | CC(C)n1nccc1C(=O)N[C@H](C(=O)Nc1ccc2c(c1)OC1(CCC1)CC2C(=O)N1CC(F)(F)C1)C1CCCCCC1 (stereo partly shown) [Compound 222] | 255 nM
23 | CC(C)n1nccc1C(=O)N[C@H](C(=O)Nc1ccc2c(c1)OC1(CCC(F)(F)CC1)CC2C(=O)N1CC(F)(F)C1)C(C1CC1)C1CC1 (stereo partly shown) [Compound 243] | 122 nM
24 | CC(C)C1CC(C(=O)N2CC(C(F)(F)F)C2)c2ccc(NC(=O)[C@@H](NC(=O)c3ccnn3C(C)C)C3CCCCCC3)cc2O1 (stereo partly shown) [Compound 164] | 72.6 nM
25 | CC(C)n1nccc1C(=O)N[C@H](C(=O)Nc1ccc2c(c1)O[C@H](C1CC(F)(F)C1)C[C@H]2C(=O)N1CC(F)(F)C1)C1CCCCCC1 [Compound 136] | 49 nM
26 | CC(C)n1nccc1C(=O)N[C@H](C(=O)Nc1ccc2c(c1)OC1(CCC(C)(C)CC1)CC2C(=O)N1CC(F)(F)C1)C1CCCCCC1 (stereo partly shown) [Compound 224] | 202 nM

Row | SMILES | IC50
27 | CC(C)C1CC(C(=O)N2CC(F)(F)C2)c2ccc(NC(=O)[C@@H](NC(=O)OC3CC(F)(F)C3)C3CCCCCC3)cc2O1 (stereo partly shown) [Compound 194] | 564 nM
28 | CC(C)n1nccc1C(=O)N[C@H](C(=O)Nc1ccc2c(c1)OC1(CCCC1)CC2C(=O)N1CC(F)(F)C1)C1CCCCCC1 (stereo partly shown) [Compound 223] | 130 nM
29 | CC(C)n1nccc1C(=O)N[C@H](C(=O)Nc1ccc2c(c1)OC1(CCOCC1)C[C@H]2C(=O)N1CC(F)(F)C1)C(C1CC1)C1CC1 [Compound 162] | 35.7 nM
30 | CC(C)n1nccc1C(=O)N[C@H](C(=O)Nc1ccc2c(c1)OCCC2CC(=O)N1CC(F)(F)C(F)(F)C1)C1CCCCCC1 (stereo partly shown) [Compound 201] | 443 nM
31 | O=C(N[C@H](C(=O)Nc1ccc2c(c1)OC(C1CC(F)(F)C1)CC2C(=O)N1CC(C(F)(F)F)C1)C1CCCCCC1)OCC1CC1(F)F (stereo partly drawn) [Compound 189, (2,2-difluorocyclopropyl)methyl N—[(S)-cycloheptyl[(2-(3,3-difluorocyclobutyl)-4-(3-(trifluoromethyl)azetidine-1-carbonyl)-3,4-dihydro-2H-1-benzopyran-7-yl)carbamoyl]methyl]carbamate] | 226 nM
32 | CC(C)[C@H]1C[C@@H](C(=O)N2CC(F)(F)C(F)(F)C2)c2ccc(NC(=O)[C@@H](NC(=O)c3ccnn3C(C)C)C3CCCCCC3)cc2O1 [Compound 215] | 40.7 nM
33 | CC(C)n1nccc1C(=O)N[C@H](C(=O)Nc1ccc2c(c1)OC(C)(C)CN2C(=O)N1CC(F)(F)C1)C1CCCCCC1 [Compound 166] | 54.5 nM
34 | CC(C)n1nccc1C(=O)N[C@H](C(=O)Nc1ccc2c(c1F)OC(C1CC(F)(F)C1)CC2C(=O)N1CC(F)(F)C1)C1CCCCCC1 (stereo partly shown) [Compound 195] | 131 nM
35 | CC(C)n1nccc1C(=O)N[C@H](C(=O)Nc1ccc2c(c1)OC(C(C)(C)C)CC2C(=O)N1CC(F)(F)C(F)(F)C1)C1CCCCCC1 (stereo partly shown) [Compound 213] | 112 nM
36 | CC(C)n1nccc1C(=O)N[C@H](C(=O)Nc1cc2c(cc1F)[C@H](C(=O)N1CC(F)(F)C1)C[C@H](C1CC(F)(F)C1)O2)C(C1CC1)C1CC1 [Compound 245] | 22 nM
37 | CC(C)n1nccc1C(=O)N[C@H](C(=O)Nc1cc2c(cc1F)[C@H](C(=O)N1CC(F)(F)C1)C[C@H](C1CC(F)(F)C1)O2)C1CCC(F)(F)CC1 [Compound 249] | 99.3 nM
38 | CC(C)n1nccc1C(=O)N[C@H](C(=O)Nc1ccc2c(c1)SCCC2C(=O)N1CC(F)(F)C(F)(F)C1)C1CCCCCC1 (stereo partly shown) [Compound 207] | 92.9 nM
39 | CC(C)n1nccc1C(=O)N[C@H](C(=O)Nc1ccc2c(c1)OCC[C@H]2NS(=O)(=O)CCC(F)(F)F)C1CCCCCC1 [Compound 5] | 333 nM
40 | CC(C)n1nccc1C(=O)N[C@H](C(=O)Nc1ccc2c(c1)OC(C1CC(F)(F)C1)CC2C(=O)N1CC(C(F)F)C1)C1CCCCCC1 (stereo partly shown) [Compound 232] | 77.1 nM
41 | CC(C)n1nccc1C(=O)N[C@H](C(=O)Nc1ccc2c(c1)OC1(CCOCC1)CN2C(=O)N1CC(F)(F)C1)C(C1CC1)C1CC1 [Compound 246] | 18.2 nM
42 | CC(C)n1nccc1C(=O)N[C@H](C(=O)Nc1ccc2c(c1)OC(C)(C)C[C@H]2NC(=O)CCC(F)(F)F)C1CCCCCC1 [Compound 13] | 239 nM
43 | CC(C)n1nccc1C(=O)N[C@H](C(=O)Nc1ccc2c(c1)CCCC2C(=O)N1CC(F)(F)C1)C1CCCCCC1 (stereo partly shown) [Compound 219] | 276 nM
44 | CC(C)n1nccc1C(=O)N[C@H](C(=O)Nc1ccc2c(c1)OCC[C@H]2C(=O)N1CC(F)(F)C1)C1CCCCCC1 [Compound 198] | 216 nM
45 | CC(C)n1nccc1C(=O)N[C@H](C(=O)Nc1ccc2c(c1)S(=O)(=O)CCC2C(=O)N1CC(F)(F)C(F)(F)C1)C1CCCCCC1 (stereo partly shown) [Compound 208] | 290 nM
46 | CC(C)n1nccc1C(=O)N[C@H](C(=O)Nc1ccc2c(c1)OC(C1CCC1)CC2C(=O)N1CC(F)(F)C(F)(F)C1)C1CCCCCC1 (stereo partly shown) [Compound 210] | 251 nM
47 | O=C(N[C@H](C(=O)Nc1ccc2c(c1)OC(C1CC(F)(F)C1)CC2C(=O)N1CC(F)(F)C1)C1CCCCCC1)OCc1cc(C(F)F)on1 (stereo partly shown) [Compound 191] | 171 nM
48 | CC(C)n1nccc1C(=O)N[C@H](C(=O)Nc1ccc2c(c1)OC1(CCOCC1)C[C@H]2C(=O)N1CC(F)(F)C1)C1CCCCCC1 [Compound 152] | 7.49 nM
49 | O=C(N[C@H](C(=O)Nc1cc2c(cc1F)C(C(=O)N1CC(F)(F)C1)CC(C1CC(F)(F)C1)O2)C1CCCCCC1)OC[C@@H]1CC1(F)F (stereo partly shown) [Compound 192] | 267 nM
